Assay results as given in PMC12163725, “Synthesis and functionalization of vinyl sulfonimidamides and their potential as electrophilic warheads” (Chemical Science, 2025).

Assay: Kinetic study of reaction with glutathione (GSH), half-life by 1H NMR (disappearance of vinyl group)
Details: second order kinetics, 1.0 equiv. glutathione, phosphate buffer pH 7.3 in D2O:(CD3)2SO = 2:1, 1H NMR
Description: The reactivity of the vinyl sulfonimidamides was next examined under biologically relevant conditions using glutathione (GSH) as the nucleophile at pH 7.3 (Scheme 4).[32] The half-life (t1/2) was determined using ^1H NMR analysis, with the disappearance of the vinyl group monitored as a function of time (full experimental details are provided in the ESI ^†). […] Due to the rapid reaction rates, the half-life for the majority of substrates was calculated using second-order kinetics. However, the half-life of unfunctionalized α-Me and β-Me-substituted sulfonimidamide derivatives were determined with pseudo-first-order kinetics using six equivalents of glutathione.
Reaction was conducted in a mixture of buffer solution and deuterated DMSO
(Buffer:(CD3)2SO = 2:1). A relatively high (CD3)2SO ratio was employed due to the insolubility
of less polar substrates in the buffer solution.
Buffer solution containing 0.0648 mol/L disodium hydrogen phosphate and 0.0153 mol/L
potassium dihydrogen phosphate at p H 7.3[10] was prepared using d euterium oxide and
stored at 20 °C. […] The stock solution […]
For the majority of substrates, the half-life was determined using second order kinetics with […]
was measured and plotted as the inverse against time. The half-life was calculated through […]
starting material was plotted as natural log and the half-life was calculated through the best-

- Half-life (t1/2) of reaction with GSH: too fast to be determined
SMILES: C=CS(=O)(=NS(C)(=O)=O)N1CCOCC1 (stereo not shown) [Compound 3e]
